Source: US10010560B2, “Small molecule HSP70 inhibitors” (THE TRUSTEES OF THE UNIVERSITY OF PENNSYLVANIA, priority 2014, dated 2018)
Several values for one entry are separate records, joined by “and”; a condition that tells them apart may be missing. Equal values may be shown once.

Columns and labels:
ADP-HSP70 (WT, aa 1-641) = target: T1, ADP-HSP70 (WT, aa 1-641) (Homo sapiens, UniProt P0DMV8, E110D); assay: ITC binding to ADP-bound full-length HSP70; conditions: ITC, wild-type full-length ADP-bound HSP70
T1 construct: Full-length recombinant proteins of HSP70 (aa 1-641) as well as DnaK (aa 1-638); His6 (N); made in house; host or cells: E. coli BL21 Star (DE3)
Excerpt: The human stress-inducible HSP70 (residues 1-641 or 386-616 of SEQ ID NO: 2) and E. coli DnaK (residues 1-638, 389-607, or 393-507 of SEQ ID NO: 4) were cloned into the pET25 vector (EMD Millipore Chemicals, Inc., Billerica, Mass., USA) between the NdeI and XhoI restriction sites. The full-length HSP70 and DnaK mutants were constructed by PCR-based site-directed mutagenesis using the QuikChange™ Site-Directed Mutagenesis Kit (Agilent Technologies, Inc., Santa Clara, Calif., USA). All plasmid inserts were verified by DNA sequencing. All HSP70 and DnaK variants were produced with a N-terminal His6-tag in the E. coli BL21 Star (DE3) strain (Invitrogen catalog number C6010-03). The resulting strains were grown at 37° C. in LB medium containing 50 μg/mL of carbenicillin (Sigma-Aldrich Co., St. Louis, Mo., USA). At an OD600 about 0.3 to about 0.5, protein expression was induced with 0.5 mM isopropyl-β-D-thiogalactopyranoside (IPTG), and cells were subsequently grown at 25° C. for about 16 h. Cells were collected by centrifugation and resuspended in the Bugbuster® Master Mix (EMD Millipore Chemicals catalog number 71456-4), supplemented with protease inhibitors, 1 mM diethiothreitol (DTT) and 20 mM imidazole. The His6-tagged fusion proteins were isolated on Ni^2+-chelating resins (Ni-NTA Superflow, Qiagen catalog number 30410) by standard procedures. When necessary, size-exclusion chromatography on a Superdex® 200 or a Superose® 6 10/300 GL columns (GE Healthcare) analytical column pre-equilibrated with 1× Dulbecco's Phosphate Buffered Saline (DPBS—Invitrogen 14190-136), 1 mM Tris-HCl (pH 7.4) or 10 mM Tris-HCl (pH 7) was used as the final purification step. The purified DnaK proteins were dialyzed thoroughly against 1× DPBS with 5 mM DTT at 4° C., for crystallization trials involving the small molecule inhibitor PET-16. For isothermal titration calorimetry studies, all HSP70 and DnaK variants were dialyzed extensively against the buffers as noted below under the section entitled “Isothermal Titration calorimetry Studies”. The dialyzed proteins were subsequently microcentrifugated at 15,000×g for 5 min at 4° C. and aliquots of the soluble proteins were stored at −80° C.
(§1) All ITC experiments were performed using a MicroCal VP-ITC isothermal titration calorimeter (MicroCal). Both full-length HSP70 and DnaK proteins and DnaK (aa 393-507) proteins were prepared in 1 mM Tris-HCl (pH 7.4) buffer containing 3% dimethylsulfoxide (DMSO). The HSP70 (aa 386-616) protein was prepared in buffer containing 3% DMSO and 10 mM Tris-HCl, pH 7. The syringe was loaded with purified protein in either 1 mM Tris-HCl (pH 7.4) buffer containing 3% DMSO or 10 mM Tris-HCl (pH 7) buffer containing 3% DMSO. The sample cell of the calorimeter was loaded with PES, PET-16 or NRLLLTG (SEQ ID NO: 7) prepared in the same buffer. All solutions were degassed for 5 min.
The titrations involving the full-length purified proteins were performed at 25° C. with injection volumes of 12 μL and a spacing of 300 s. The titrations involving the purified HSP70 (aa 386-616) and DnaK (aa 393-507) were performed at 42° C. with injection volumes of 12 μL and a spacing of 300 s. Heat from the pre-injection was not used during fitting. The data were fit using a one-site binding model available in the Origin® ITC data analysis software (MicroCal Origin® V5.0, MicroCal Software, Northampton, Mass.). Error values obtained from the MicroCal Origin® V5.0 software were averaged and reported. […]

ATP-HSP70 (WT) = target: T2, ATP-HSP70 (WT) (Homo sapiens, UniProt P0DMV8, E110D); assay: ITC binding to ATP-bound full-length HSP70; conditions: wild-type full-length ATP-bound HSP70
T2 construct: Full-length recombinant proteins of HSP70 (aa 1-641) as well as DnaK (aa 1-638); His6 (N); made in house; host or cells: E. coli BL21 Star (DE3)
Excerpt: The human stress-inducible HSP70 (residues 1-641 or 386-616 of SEQ ID NO: 2) and E. coli DnaK (residues 1-638, 389-607, or 393-507 of SEQ ID NO: 4) were cloned into the pET25 vector (EMD Millipore Chemicals, Inc., Billerica, Mass., USA) between the NdeI and XhoI restriction sites. The full-length HSP70 and DnaK mutants were constructed by PCR-based site-directed mutagenesis using the QuikChange™ Site-Directed Mutagenesis Kit (Agilent Technologies, Inc., Santa Clara, Calif., USA). All plasmid inserts were verified by DNA sequencing. All HSP70 and DnaK variants were produced with a N-terminal His6-tag in the E. coli BL21 Star (DE3) strain (Invitrogen catalog number C6010-03). The resulting strains were grown at 37° C. in LB medium containing 50 μg/mL of carbenicillin (Sigma-Aldrich Co., St. Louis, Mo., USA). At an OD600 about 0.3 to about 0.5, protein expression was induced with 0.5 mM isopropyl-β-D-thiogalactopyranoside (IPTG), and cells were subsequently grown at 25° C. for about 16 h. Cells were collected by centrifugation and resuspended in the Bugbuster® Master Mix (EMD Millipore Chemicals catalog number 71456-4), supplemented with protease inhibitors, 1 mM diethiothreitol (DTT) and 20 mM imidazole. The His6-tagged fusion proteins were isolated on Ni^2+-chelating resins (Ni-NTA Superflow, Qiagen catalog number 30410) by standard procedures. When necessary, size-exclusion chromatography on a Superdex® 200 or a Superose® 6 10/300 GL columns (GE Healthcare) analytical column pre-equilibrated with 1× Dulbecco's Phosphate Buffered Saline (DPBS—Invitrogen 14190-136), 1 mM Tris-HCl (pH 7.4) or 10 mM Tris-HCl (pH 7) was used as the final purification step. The purified DnaK proteins were dialyzed thoroughly against 1× DPBS with 5 mM DTT at 4° C., for crystallization trials involving the small molecule inhibitor PET-16. For isothermal titration calorimetry studies, all HSP70 and DnaK variants were dialyzed extensively against the buffers as noted below under the section entitled “Isothermal Titration calorimetry Studies”. […]

[1] = system: melanoma tumor cell line WM989; assay: Combination with BRAF inhibitor Vemurafenib, viability; type: cell-based, human
Excerpt: FIG. 6 is a line graph illustrating that PET-16 synergizes with the BRAF inhibitor Vemurafenib to reduce the viability of the melanoma tumor cell line WM989 (▪). WM989 cells treated singularly with Vemurafenib are depicted by (●). No synergy was detected between Vemurafenib and PES-Cl.

tumor cells = assay: Cytotoxic effect on tumor cells; type: cell-based; conditions: in words
Excerpt: FIGS. 1A to 1G provide the PET-16 and analogs thereof. FIGS. 1A-1C provide the chemical structures of PES, Biotin-PES, and PES-Cl, respectively. The chemical names and the major functional groups are indicated. […] The chemical names are indicated. FIGS. 1E-1G are the chemical structures of PET-16, PET-3C and PET-DR, respectively. The chemical names and the major functional groups are indicated.

HSP70 (aa 386-616) = target: T3, HSP70 (aa 386-616) (Homo sapiens, UniProt P0DMV8); assay: ITC binding to C-terminal domain of HSP70; conditions: in words
T3 construct: His6 (N); made in house; host or cells: E. coli BL21 Star (DE3)
Excerpt: The human stress-inducible HSP70 (residues 1-641 or 386-616 of SEQ ID NO: 2) and E. coli DnaK (residues 1-638, 389-607, or 393-507 of SEQ ID NO: 4) were cloned into the pET25 vector (EMD Millipore Chemicals, Inc., Billerica, Mass., USA) between the NdeI and XhoI restriction sites. The full-length HSP70 and DnaK mutants were constructed by PCR-based site-directed mutagenesis using the QuikChange™ Site-Directed Mutagenesis Kit (Agilent Technologies, Inc., Santa Clara, Calif., USA). All plasmid inserts were verified by DNA sequencing. All HSP70 and DnaK variants were produced with a N-terminal His6-tag in the E. coli BL21 Star (DE3) strain (Invitrogen catalog number C6010-03). The resulting strains were grown at 37° C. in LB medium containing 50 μg/mL of carbenicillin (Sigma-Aldrich Co., St. Louis, Mo., USA). At an OD600 about 0.3 to about 0.5, protein expression was induced with 0.5 mM isopropyl-β-D-thiogalactopyranoside (IPTG), and cells were subsequently grown at 25° C. for about 16 h. Cells were collected by centrifugation and resuspended in the Bugbuster® Master Mix (EMD Millipore Chemicals catalog number 71456-4), supplemented with protease inhibitors, 1 mM diethiothreitol (DTT) and 20 mM imidazole. The His6-tagged fusion proteins were isolated on Ni^2+-chelating resins (Ni-NTA Superflow, Qiagen catalog number 30410) by standard procedures. […]

DnaK SBD = target: T4, DnaK SBD (Escherichia coli, UniProt P0A6Y8); assay: ITC binding to DnaK SBD; set-up: species or system E. coli; conditions: in words
T4 construct: The titrations involving the purified HSP70 (aa 386-616) and DnaK (aa 393-507) were performed at 42° C; His6 (N); made in house; host or cells: E. coli BL21 Star (DE3)
Experimental: as §1
The titrations involving the full-length purified proteins were performed at 25° C. with injection volumes of 12 μL and a spacing of 300 s. The titrations involving the purified HSP70 (aa 386-616) and DnaK (aa 393-507) were performed at 42° C. with injection volumes of 12 μL and a spacing of 300 s. Heat from the pre-injection was not used during fitting. The data were fit using a one-site binding model available in the Origin® ITC data analysis software (MicroCal Origin® V5.0, MicroCal Software, Northampton, Mass.). Error values obtained from the MicroCal Origin® V5.0 software were averaged and reported.

E. coli DH5α = assay: Growth of E. coli DH5α at 43° C.; type: cell-based; conditions: 6 h at 43° C.
Experimental: FIGS. 2A-2D illustrate the cytotoxicity of PET-16 to human tumor cells and its inhibition on E. coli growth. FIG. 2A is a line graph with data obtained from MTT assays of human melanoma cell lines treated with the indicated concentrations of PES or PET-16 for 72 h. The corresponding cell survival is normalized to vehicle (DMSO) treatment. Average and standard deviation (s.d.) from three independent experiments are shown. FIG. 2B are bar graphs of human melanoma (A875) cells and nontransformed human (IMR90) fibroblasts that were treated with DMSO, 10 μM PES or 10 μM PET-16 for 24 h. […] FIG. 2C is a line graph illustrating the growth of E. coli DH5α treated with different concentrations of PES or PET-16 for 6 h at 43° C. Error bars represent the s.d. of four independent experiments. FIG. 2D is a bar graph illustrating the growth of E. coli DH5α treated with DMSO, 30 μM PET-16 or 30 μM TPP for 6 h at 43° C. Error bars represent the s.d. of four independent experiments.
FIGS. 9A-9H illustrate that PET-16 binds directly to ADP-bound HSP70 and is cytotoxic to human tumor cells. FIGS. 9A-9C are ITC assays of the interaction of PET-3C with purified human HSP70-ADP (A), human HSP70-ATP (B) and DnaK-ADP (C) proteins. The data are representative of three independent experiments. FIG. 9D is a line graph of an MTT assay of the human melanoma cell line 1205 Lu treated with the indicated concentrations of PET-16 (---) or PET-3C (-) for 72 h. The corresponding cell survival is normalized to the DMSO-treatment. Average and standard deviation (s.d.) from three independent experiments are shown. FIG. 9E is a line graph illustrating the growth of E. coli DH5α strain treated with different concentrations of PET-16 (black) or PET-3C (gray) for 6 h at 43° C. Error bars represent the s.d. of four independent experiments. FIG. 9F is a bar graph illustrating the growth of E. coli DH5α treated with DMSO, 30 μM PET-16, 30 μM PET-3C or 30 μM TPP for 6 h at 43° C. Error bars represent the s.d. of four independent experiments. […]

T1 sequence (P0DMV8 whole entry E110D, the tested form may be a part): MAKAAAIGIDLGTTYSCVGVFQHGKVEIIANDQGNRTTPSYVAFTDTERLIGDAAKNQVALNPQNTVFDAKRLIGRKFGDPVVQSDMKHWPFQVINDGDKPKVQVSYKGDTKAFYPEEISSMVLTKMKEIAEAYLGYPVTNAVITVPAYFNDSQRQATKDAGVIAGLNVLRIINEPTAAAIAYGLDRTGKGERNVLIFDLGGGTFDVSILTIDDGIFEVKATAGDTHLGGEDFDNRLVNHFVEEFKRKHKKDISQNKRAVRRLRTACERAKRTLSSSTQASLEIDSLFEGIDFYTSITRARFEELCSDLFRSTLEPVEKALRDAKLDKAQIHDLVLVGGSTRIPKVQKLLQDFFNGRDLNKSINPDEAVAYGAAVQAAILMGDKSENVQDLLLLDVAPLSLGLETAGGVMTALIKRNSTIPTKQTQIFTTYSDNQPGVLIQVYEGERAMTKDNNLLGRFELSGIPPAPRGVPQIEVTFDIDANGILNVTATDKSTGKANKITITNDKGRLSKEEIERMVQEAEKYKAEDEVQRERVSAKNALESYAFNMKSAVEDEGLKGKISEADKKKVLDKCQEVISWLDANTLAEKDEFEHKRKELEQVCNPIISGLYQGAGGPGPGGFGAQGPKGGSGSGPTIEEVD
T2 sequence (P0DMV8 whole entry E110D, the tested form may be a part): as above
T4 sequence (P0A6Y8 393-507): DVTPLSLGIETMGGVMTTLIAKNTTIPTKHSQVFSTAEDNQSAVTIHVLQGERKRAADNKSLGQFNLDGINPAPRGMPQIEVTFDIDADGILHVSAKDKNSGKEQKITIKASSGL
T3 sequence (P0DMV8 386-616): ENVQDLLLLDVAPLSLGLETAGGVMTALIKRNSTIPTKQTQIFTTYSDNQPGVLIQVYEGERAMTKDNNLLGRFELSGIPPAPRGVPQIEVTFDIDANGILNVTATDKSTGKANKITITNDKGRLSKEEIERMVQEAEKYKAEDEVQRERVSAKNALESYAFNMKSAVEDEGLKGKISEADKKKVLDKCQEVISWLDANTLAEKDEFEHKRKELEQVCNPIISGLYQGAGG

**Q.** Which Kd (ADP-HSP70 (WT, aa 1-641)) does the source give for `CC(C)C[C@H](NC(=O)[C@H](CC(C)C)NC(=O)[C@H](CCCNC(=N)N)NC(=O)[C@@H](N)CC(N)=O)C(=O)N[C@@H](CC(C)C)C(=O)N[C@H](C(=O)NCC(=O)O)[C@@H](C)O` [NRLLLTG, reference compound] here?
**A.** Its Kd is ~10 µM and 10 µM.

**Q.** And the Kd (ATP-HSP70 (WT))?
**A.** Its Kd is 1250 ± 15 µM.

**Q.** Which “synergy with PLX4032 (Vemurafenib)” value [1] does the source give for “2-(3-chlorophenyl) ethynesulfonamide [PES-Cl, reference compound]” here?
**A.** The value was “did not synergize”.

**Q.** With `c1ccc(P(c2ccccc2)c2ccccc2)cc1` [TPP, triphenylphosphine] as the compound, how does the “cytotoxicity for tumor cells” value (tumor cells) read?
**A.** The value was “little discernible effect”.

**Q.** What about the “binding to HSP70 SBD” value (HSP70 (aa 386-616)) of the same compound?
**A.** Its value is “does not bind”.

**Q.** What about the “binding to DnaK SBD” value (DnaK SBD) of the same compound?
**A.** Its value is “does not bind”.

**Q.** What about the “effect on growth of E. coli” value (E. coli DH5α) of the same compound?
**A.** The value was “no negative effect”.
